Assay results from US10071979B2, “Process of producing cycloalkylcarboxamido-indole compounds” (Vertex Pharmaceuticals Incorporated, priority 2010, dated 2018).

Molecular target: T1, ΔF508-CFTR (Homo sapiens, UniProt P13569, DEL508-508)
T1 construct: expressed in transfected cells
Test: Assays for detecting and measuring ΔF508-CFTR correction properties (membrane potential optical assay, FRET voltage-sensor dyes)
Assay type: cell-based
Conditions: NIH3T3 mouse fibroblasts stably expressing ΔF508-CFTR; percent activity bins
Description: Assays for Detecting and Measuring ΔF508-CFTR Correction Properties of Compounds
Membrane Potential Optical Methods for Assaying ΔF508-CFTR Modulation Properties of Compounds
The optical membrane potential assay utilized voltage-sensitive FRET sensors described by Gonzalez and Tsien (See, Gonzalez, J. E. and R. Y. Tsien (1995) “Voltage sensing by fluorescence resonance energy transfer in single cells” Biophys J 69(4): 1272-80, and Gonzalez, J. E. and R. Y. Tsien (1997) “Improved indicators of cell membrane potential that use fluorescence resonance energy transfer” Chem Biol 4(4): 269-77) in combination with instrumentation for measuring fluorescence changes such as the Voltage/Ion Probe Reader (VIPR) (See, Gonzalez, J. E., K. Oades, et al. (1999) “Cell-based assays and instrumentation for screening ion-channel targets” Drug Discov Today 4(9): 431-439).
These voltage sensitive assays are based on the change in fluorescence resonant energy transfer (FRET) between the membrane-soluble, voltage-sensitive dye, DiSBAC2(3), and a fluorescent phospholipid, CC2-DMPE, which is attached to the outer leaflet of the plasma membrane and acts as a FRET donor. […] The changes in fluorescence emission were monitored using VIPR™ II, which is an integrated liquid handler and fluorescent detector designed to conduct cell-based screens in 96- or 384-well microtiter plates. […]

T1 sequence (P13569 with tags, fused parts or gaps DEL508-508): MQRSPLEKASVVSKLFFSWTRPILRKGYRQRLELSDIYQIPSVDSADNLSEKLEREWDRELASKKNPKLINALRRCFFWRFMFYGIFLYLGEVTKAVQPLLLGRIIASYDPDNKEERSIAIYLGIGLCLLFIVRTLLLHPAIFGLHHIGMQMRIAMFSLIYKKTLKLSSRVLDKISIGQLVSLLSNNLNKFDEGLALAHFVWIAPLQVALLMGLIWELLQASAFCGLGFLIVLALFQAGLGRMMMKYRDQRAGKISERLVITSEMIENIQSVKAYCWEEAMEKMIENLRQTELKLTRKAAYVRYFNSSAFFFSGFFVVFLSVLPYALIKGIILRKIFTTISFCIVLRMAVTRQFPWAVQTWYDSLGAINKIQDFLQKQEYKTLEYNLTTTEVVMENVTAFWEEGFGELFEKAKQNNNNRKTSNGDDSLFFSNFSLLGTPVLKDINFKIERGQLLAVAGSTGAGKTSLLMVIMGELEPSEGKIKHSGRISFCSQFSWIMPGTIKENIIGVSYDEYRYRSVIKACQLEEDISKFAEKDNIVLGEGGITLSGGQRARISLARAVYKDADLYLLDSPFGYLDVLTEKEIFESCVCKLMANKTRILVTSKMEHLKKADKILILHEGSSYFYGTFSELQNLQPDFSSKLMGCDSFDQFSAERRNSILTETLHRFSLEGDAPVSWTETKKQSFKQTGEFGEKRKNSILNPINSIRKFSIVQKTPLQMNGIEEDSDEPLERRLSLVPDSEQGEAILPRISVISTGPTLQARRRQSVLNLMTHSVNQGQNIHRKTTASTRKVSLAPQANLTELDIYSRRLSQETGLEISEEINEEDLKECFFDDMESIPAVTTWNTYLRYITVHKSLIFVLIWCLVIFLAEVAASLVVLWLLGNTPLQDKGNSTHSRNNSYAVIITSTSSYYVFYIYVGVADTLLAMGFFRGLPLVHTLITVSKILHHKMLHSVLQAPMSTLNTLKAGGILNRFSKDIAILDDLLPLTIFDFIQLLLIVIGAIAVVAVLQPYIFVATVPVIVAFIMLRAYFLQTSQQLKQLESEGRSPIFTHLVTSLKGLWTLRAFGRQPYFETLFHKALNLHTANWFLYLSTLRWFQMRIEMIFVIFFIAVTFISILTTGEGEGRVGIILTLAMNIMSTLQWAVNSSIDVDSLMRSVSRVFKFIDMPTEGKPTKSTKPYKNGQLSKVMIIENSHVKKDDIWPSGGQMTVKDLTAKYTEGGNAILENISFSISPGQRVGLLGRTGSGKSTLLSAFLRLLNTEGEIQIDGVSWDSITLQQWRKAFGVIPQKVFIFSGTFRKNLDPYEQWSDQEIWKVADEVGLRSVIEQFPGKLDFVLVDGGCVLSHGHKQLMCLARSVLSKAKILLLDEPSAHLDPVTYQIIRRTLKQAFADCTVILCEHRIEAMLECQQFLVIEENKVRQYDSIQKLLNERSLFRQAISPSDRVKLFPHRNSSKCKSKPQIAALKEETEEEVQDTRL

Structure (SMILES): CC(C)(CO)c1cc2cc(NC(=O)C3(c4ccc5c(c4)OC(F)(F)O5)CC3)c(F)cc2n1C[C@@H](O)CO [Compound 1, (R)-1-(2,2-difluorobenzo[d][1,3]dioxol-5-yl)-N-(1-(2,3-dihydroxypropyl)-6-fluoro-2-(1-hydroxy-2-methylpropan-2-yl)-1H-indol-5-yl)cyclopropanecarboxamide]
- Binned MaxEfficacy (PercentActivity): +++ (100.0 < +++)
